In US8293231B2, “Methods and compositions for treating ischemia” (Blue Blood Biotech Corp., priority 2005, dated 2012):
Entries after “also recorded” stand apart in the source; their conditions may differ.

How the values were obtained:
[1] = test system: human umbilical vein endothelial cells (HUVECs); test: Cell proliferation assay (BrdU incorporation); assay type: cell-based
Protocol: (§1) To evaluate the effect of TMD proteins on DNA synthesis in human umbilical vein endothelial cells (HUVECs), we performed a 5-bromo-2′-deoxyuridine (BrdU) incorporation assay with a commercial quantification kit (Roche Diagnostic GmbH) and manufacturer's protocol. Mitogenic effects induced by TMD proteins were also determined in the presence of polyclonal rabbit anti-TMD23 antibody (prepared by GlycoNex, Inc., Taiwan) that was purified by protein G-Sepharose column (Amersham Pharmacia Biotech AB).
as §1, with “(HUVECs),” for “(HUVECs), we performed”, “assay were performed” for “assay”

[2] = test system: PAI activity in conditioned media of HUVECs; test: Plasminogen activator inhibitor (PAI) activity assay; assay type: cell-based, human; conditions: 12 h; 100 or 1000 ng/mL TMD23, 70 ng/mL PMA, 10 ng/mL VEGF
Protocol: (§2) HUVECs were seeded at 80% confluence on 100-mm dishes in M199 medium. After 24 h, cells were rinsed with serum-free M199 twice and incubated in serum-free M199 with various concentrations of TMD23, VEGF (10 ng/mL), or PMA (70 ng/mL) for 12 h. The conditioned medium containing […] secreted proteins was analyzed by gelatin- and casein-based zymographies. The digested area appeared clear on a blue background, indicating the location of matrix metalloproteinase (MMP) activity. To further verify MMP caseinolytic activity, the casein-containing gel was incubated with incubation buffer containing 10 mM EDTA, an inhibitor of MMPs, to observe disappearance of the clear band. Plasminogen activator inhibitor (PAI) activity was measured by titrating samples with increasing amounts of tissue-type plasminogen activator (t-PA) (Boehringer Ingelheim) into a fixed volume of endothelial-cell-conditioned media.
as §2, with “zymographies. Lee O H, et al., Identification of angiogenic properties of insulin-like growth factor II in in vitro angiogenesis models. Brit J. Cancer. 2000; 82:385-391.” for “zymographies.”, “media. Shi G Y., et al., Plasmin and the regulation of tissue-type plasminogen activator biosynthesis in human endothelial cells. […]” for “media.”

rat cornea = test: Rat corneal angiogenesis assay; assay type: in vivo, Sprague Dawley rats
Protocol: (§3) The rat corneal assay was performed as described elsewhere. See eg., Kenyon B M., et al A model of angiogenesis in the mouse cornea. Invest Opthalmol Vis Sci. 1996; 37:1625-1632. Uniformly sized pellets of Hydron (polyhydroxyethylmethacrylate [poly HEMA]) (Sigma-Aldrich) containing either TMD23 or basic fibroblast growth factor (bFGF) and sucralfate (Sigma-Aldrich) were implanted into the rat corneal stroma adjacent to the temporal limbus. Briefly, sterile-saline suspensions containing 5-40 μg TMD23 or bFGF plus 10 mg sucralfate were made and speed vacuumed for 5 min; 12% Hydron in ethanol was added as described. The suspension was deposited onto an autoclaved, sterilized, 15-mm×15-mm nylon mesh. […] The eyes of Sprague Dawley rats (250-300 g) were topically anesthetized and a single pellet was inserted into a surgically created pocket in the corneal stroma. Corneas were examined daily with a dissecting microscope for up to 24 days for capillary growth. Maximal vessel length, clock h, and vascular areas of corneas of all rats were measured with a slit-lamp stereomicroscope.
as §3, with “elsewhere.” for “elsewhere. See eg., Kenyon B M., et al A model of angiogenesis in the mouse cornea. Invest Opthalmol Vis Sci. 1996; 37:1625-1632.”, “clock hour,” for “clock h,”

[3] = test system: human melanoma A2058 cells in Matrigel; test: Effect of TMD23 on tumor neoangiogenesis; assay type: in vivo, athymic nude mice
Protocol: To assess TMD23 effects on tumor neoangiogenesis, 1×10^6 human melanoma A2058 cells (ATCC® CRL-11147) were mixed with Matrigel (0.5 mL) containing heparin (60 U/mL) and various concentrations of TMD23 and subcutaneously injected into athymic nude mice. Matrigel plugs were harvested after 18 days and frozen in liquid nitrogen. Blood vessels were detected by immunohistochemistry using anti-CD31 antibody as described above. Microvessel density (MVD) was calculated by counting six highly vascularized fields in each section (200× magnification; MetaMorph software).

TMD23: Recombinant human thrombomodulin fragment, amino acids Ala242-Ser515 of SEQ ID NO: 2: six EGF-like structures (D2) plus Ser/Thr-rich domain D3
Stimulation of HUVEC proliferation ([1]; 4.5 nM (150 ng/mL)): roughly two-fold
DNA synthesis in HUVECs ([1]; BrdU incorporation, FIG. 2A): stimulated DNA synthesis
Mitogenic activity / stimulation of HUVEC proliferation compared with TMD2 ([1]; FIG. 2A): higher mitogenic activity than TMD2; also recorded: more effective than TMD2
PAI activity in conditioned media of HUVECs [2]: decreased significantly
Day of maximal response (rat cornea; 90-ng dose): 10 days
Maximal response compared with bFGF (rat cornea; 90-ng dose, day 10): slightly greater than the response to 90 ng bFGF
Corneal neovascularization (rat cornea; implants in rat cornea): induced dose-dependent and time-dependent corneal neovascularization
Day of complete abrogation of angiogenic response (rat cornea; response regressed gradually after day 10): ≤ 24 days
Blood vessels in Matrigel plugs (CD31 staining) ([3]; 18 days): significantly more blood vessels
Weight of tumor contained in a Matrigel plug ([3]; FIG. 8A): increased the weight of tumor
Microvessel density (MVD) ([3]; FIG. 8C): increased microvessel density
Tumor size developed by Matrigel plugs containing A2058 cells ([3]; compared with A2058 cells alone, 18 days): bigger
